Where “and” joins values, the source holds several entries; their conditions need not be identical. Equal values may be shown once.
How the values were obtained:
[1] = system: L. (L.) infantum promastigotes; assay: In vitro activity on L. (L.) infantum promastigotes, counting viable parasites; type: cell-based, Leishmania (Leishmania) infantum; conditions: for IC50: Leishmania infantum, 72 h, 28 °C, read-out: L. (L) infantum promastigotes IC50 ± SD; for L. (L) infantum promastigotes SI: selectivity index CC50/IC50
Experimental: (§1) Epimastigotes of T. cruzi and promastigotes forms of L. […] The inhibition of parasite growth was microscopically determined by counting viable (live) parasites in a haemocytometer using yellow eosin as vital dye; live parasites (uncolored) and dead (orange) were counted. All of the experiments were performed with parasites in their logarithmic phase of growth. […] Negative controls were used without the drug (culture medium alone) in each experiment. […] The data were calculated by linear regression using the software ([…]; GO Business Solution, Guildford, UK). The selectivity index (SI) was calculated dividing CC50/IC50. Each experiment was repeated twice and the values represent the results of one representative experiment. […] The analysis to determine the statistical differences in biological activity was performed using the analysis of variance (ANOVA) and the Bonferroni post-test. We also performed Student's t test for comparison between the two variables, using GraphPad Prism software version 5.03.

[2] = system: T. cruzi epimastigotes; assay: In vitro activity on T. cruzi epimastigotes, counting viable parasites; type: cell-based, Trypanosoma cruzi; conditions: for IC50: Trypanosoma cruzi, 72 h, 28 °C, read-out: T. cruzi epimastigotes IC50 ± SD; for T. cruzi epimastigotes SI: selectivity index CC50/IC50
Experimental: as §1

[3] = Mammalian cell toxicity, MTT, THP-1 cells; type: cell-based; conditions: human, THP-1 cells transformed into adherent macrophages with PMA; 72 h, MTT; read-out: Mammalian cells THP-1 CC50 ± SD
Experimental: (§2) Vero cells and THP-1 cells transformed into adherent macrophages with PMA in 96 microwell plates where they were treated with compounds (0-350 μM) during 72 h at 37 °C, 5% CO2-95% air mixture. The viability of the cells was evaluated by using the tetrazolium-dye (MTT) colorimetric method. After incubation of the cells with the MTT (5mg/mL) reagent for 4 hours, DMSO was added. The samples were read using an ELISA plate reader at a wavelength of 580 nm. The amount of color produced is directly proportional to the number of viable cells. The percentage of cytotoxicity was calculated by the equation: cytotoxicity (%) = (OD control group-OD treatment group)/OD control group × 100 [31]. […] The data were calculated by linear regression using the software ([…]; GO Business Solution, Guildford, UK). The selectivity index (SI) was calculated dividing CC50/IC50. Each experiment was repeated twice and the values represent the results of one representative experiment. […] The analysis to determine the statistical differences in biological activity was performed using the analysis of variance (ANOVA) and the Bonferroni post-test. We also performed Student's t test for comparison between the two variables, using GraphPad Prism software version 5.03.

[4] = Mammalian cell toxicity, MTT, Vero cells; type: cell-based; conditions: African green monkey, Vero cells, 72 h, MTT; read-out: Mammalian cells Vero CC50 ± SD
Experimental: as §2

[5] = system: L. (L.) infantum intracellular amastigotes; assay: Intracellular amastigotes of L. (L.) infantum infecting THP-1 macrophages; type: cell-based, Leishmania (Leishmania) infantum
Experimental: (§3) For the amastigotes assays, adherent Vero cells or THP-1 macrophages (after transformation with 10 ng/mL PMA) were infected with tissue-derived trypomastigotes or stationary phase promastigotes, respectively, at a ratio of 10:1 and maintained in a 5% CO2-95% air mixture at 37 °C. After 24 h, infected cultures with >50% of infected cells were incubated with the compounds (from 3–300 μM) in a three-fold dilution series for 72 h. Drug activity was determined from the % of infected cells in treated and untreated cultures in fixed methanol and Giemsa stained preparations. Parasites’ assays were performed twice and each tested concentration was tested in triplicate.
(§4) Negative controls were used without the drug (culture medium alone) in each experiment.
(§5) The data were calculated by linear regression using the software (Msxlfit; GO Business Solution, Guildford, UK). The selectivity index (SI) was calculated dividing CC50/IC50. Each experiment was repeated twice and the values represent the results of one representative experiment. […] The analysis to determine the statistical differences in biological activity was performed using the analysis of variance (ANOVA) and the Bonferroni post-test. We also performed Student’s t test for comparison between the two variables, using GraphPad Prism software version 5.03. P values <0.05 were considered to be statistically significant.

[6] = system: L.(V.) panamensis intracellular amastigotes; assay: Intracellular amastigotes of L. (V.) panamensis in THP-1 macrophages; type: cell-based, Leishmania (Viannia) panamensis
Experimental: as §3, §4, §5

[7] = system: L. (L.) amazonensis intracellular amastigotes; assay: Intracellular amastigotes of L. (L.) amazonensis in THP-1 macrophages; type: cell-based, Leishmania (Leishmania) amazonensis
Experimental: as §3, §4, §5

[8] = system: T. cruzi intracellular amastigotes; assay: Intracellular amastigotes of T. cruzi in Vero cells; type: cell-based, Trypanosoma cruzi
Experimental: as §3, §4, §5

| Structure (SMILES) | IC50 [1] [µM] | L. (L) infantum promastigotes SI [1] | IC50 [2] [µM] | CC50 at 72 h [3] [µM] | CC50 at 72 h [4] [µM] | T. cruzi epimastigotes SI [2] | also measured |
| --- | --- | --- | --- | --- | --- | --- | --- |
| c1ccc(CNCCNCc2ccccc2)cc1 [5a, N^1,N^2-dibenzylethane-1,2-diamine] | 12.2 ± 2.45 | 19.58 | 2.54 ± 0.08 | 239 ± 17.9 | 75.3 ± 2.57 |  | activity on L. (L.) infantum promastigotes, in words ([1]; free-living form): active; activity on T. cruzi epimastigotes, in words ([2]; free-living form): active; IC90 ([5]; Leishmania infantum, THP-1 macrophages, 72 h): 59.5 ± 2.78 µM; IC50 ([5]; Leishmania infantum, THP-1 macrophages, 72 h, 48.58% cells infected before treatment): 25.4 ± 0.33 µM; L. (L.) infantum intracellular amastigotes SI ([5]; selectivity index CC50/IC50): 9.39 and 9; activity on intracellular amastigotes of L. panamensis, in words [6]: partially active (partially active with IC50 >25 μM and IC90 <100 μM); IC90 ([6]; THP-1 macrophages, 72 h): 88.1 ± 1.85 µM; IC50 ([6]; THP-1 macrophages, 72 h, 78.3% cells infected before treatment): 58.2 ± 3.23 µM; L.(V.) panamensis intracellular amastigotes SI ([6]; selectivity index CC50/IC50): 5; IC90 ([7]; Leishmania amazonensis, THP-1 macrophages, 72 h): 131 ± 9.14 µM; IC50 ([7]; Leishmania amazonensis, THP-1 macrophages, 72 h, 58.6% cells infected before treatment): 49.3 ± 4.7 µM; L. (L.) amazonensis intracellular amastigotes SI ([7]; selectivity index CC50/IC50): 6; IC90 ([8]; Trypanosoma cruzi, Vero cells, 72 h): > 123 µM; IC50 ([8]; Trypanosoma cruzi, Vero cells, 72 h, 98.1% cells infected before treatment): 131.2 ± 0.92 µM; T. cruzi intracellular amastigotes SI ([8]; selectivity index CC50/IC50): 0.48 |
| c1ccc(CNCCCNCc2ccccc2)cc1 [5b] | 1.96 ± 0.07 | 86.29 | 5.35 ± 0.27 | 169 ± 29.8 | 343 ± 29.4 | 64.2 |  |
| COc1ccc(CNCCNCc2ccc(OC)c(O)c2)cc1O [5d] | 40.2 ± 5.21 | >7.48 | 0.88 ± 0.06 | > 300 | > 300 |  |  |
| COc1ccc(CNCCCCNCc2ccc(OC)c(O)c2)cc1O [5e] | > 250 |  | 1.22 ± 0.08 | 248 | > 250 |  |  |
| c1cc(CNCCNCc2ccncc2)ccn1 [5h] | 181 ± 1.89 | >2.28 | > 250 | > 413 | 356 ± 37.1 | >0.86 |  |
| c1ccc(CNCCCCNCc2ccccn2)nc1 [5i] | 28.8 ± 5.14 | >12.82 | > 250 | > 300 | 132 ± 12.3 | >0.35 |  |
| c1cncc(CNCCCCNCc2cccnc2)c1 [5j] | 44.2 ± 10.5 | >8.36 | > 250 | > 300 | > 300 | >1 |  |
| O=C1CSC(c2ccccc2)N1CCN1C(=O)CSC1c1ccccc1 (centres unmarked) [6a] | 136 ± 6.96 | >1.91 | 237 ± 12.1 | > 250 | 171 ± 3.77 | 0.72 |  |
| O=C1CSC(c2ccccc2)N1CCCCN1C(=O)CSC1c1ccccc1 (centres unmarked) [6c] | > 250 | >1.0 | > 250 | > 250 | > 250 | >1.01 |  |
| O=C1CSC(c2ccccn2)N1CCN1C(=O)CSC1c1ccccn1 (centres unmarked) [6f] | 176 ± 16 | >1.46 | 161 ± 5.58 | > 250 | > 250 | >1.60 |  |

— article PMC3617668, “In Vitro Antileishmanial, Trypanocidal, and Mammalian Cell Activities of Diverse N,N′ -Dihetaryl Substituted Diamines and Related Compounds” (Scientia Pharmaceutica, 2012)
